Test results as given in paper PMC10454375, “Cell-Impermeable Inhibitors Confirm That Intracellular Human Transglutaminase 2 Is Responsible for the Transglutaminase-Associated Cancer Phenotype” (International Journal of Molecular Sciences, 2023).
Where two headings read alike, the source gives them in different places.

Experiments:
Recombinant human TG2 [1] = molecular target: T1, Recombinant human TG2 (Homo sapiens, UniProt P21980); parameters: method as in PMID 36846375; conditions: previous lead compound, Figure 1; cited from earlier work
T1 construct: GST (with PSP protease site, plasmid pGST-PSP-rhTG2) (N, cleaved yes); made in house; host or cells: E. coli (BL21)
T1 sequence (P21980 1-687): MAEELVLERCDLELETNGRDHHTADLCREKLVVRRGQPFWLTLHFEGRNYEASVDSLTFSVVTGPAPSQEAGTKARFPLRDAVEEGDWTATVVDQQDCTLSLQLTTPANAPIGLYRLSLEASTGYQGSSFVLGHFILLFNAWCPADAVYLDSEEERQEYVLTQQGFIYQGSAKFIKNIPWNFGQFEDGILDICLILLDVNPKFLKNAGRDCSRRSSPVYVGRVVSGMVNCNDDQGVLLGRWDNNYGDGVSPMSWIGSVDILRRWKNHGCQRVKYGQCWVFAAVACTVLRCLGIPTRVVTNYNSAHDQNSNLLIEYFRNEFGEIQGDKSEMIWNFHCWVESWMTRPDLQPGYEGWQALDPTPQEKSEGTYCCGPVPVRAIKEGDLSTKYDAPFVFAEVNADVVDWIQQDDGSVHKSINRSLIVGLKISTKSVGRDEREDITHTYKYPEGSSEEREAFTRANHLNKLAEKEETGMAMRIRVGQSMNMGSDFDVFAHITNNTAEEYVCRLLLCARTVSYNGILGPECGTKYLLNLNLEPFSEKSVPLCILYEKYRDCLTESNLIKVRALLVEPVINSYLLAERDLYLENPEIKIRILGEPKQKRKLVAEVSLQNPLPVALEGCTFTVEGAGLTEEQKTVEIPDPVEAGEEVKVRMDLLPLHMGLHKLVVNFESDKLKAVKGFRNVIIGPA

GST-TG2 fusion protein = molecular target: T2, GST-TG2 fusion protein (Homo sapiens, UniProt P21980); assay: Pull-down of rhTG2 from E. coli lysate (CuAAC with desthiobiotin-PEG3-azide, streptavidin resin); type: binding; conditions: E. coli lysate overexpressing GST-rhTG2; elution with 4 mM biotin
T2 construct: made in house; host or cells: BL21 E. coli (crude lysate)
Description: As a proof of concept, previously described BL21 E. coli cells were transformed with a plasmid (pGST-PSP-rhTG2) to induce overexpression of recombinant human TG2 (rhTG2) as a GST fusion protein [47]. The bacterial cells were then lysed and exposed to the propargylated inhibitor 31 to allow for labelling. A subsequent CuAAC reaction was then performed in the same cell lysate to incorporate the desthiobitoin-PEG3-azide into labelled TG2. The lysate was then passed over streptavidin resin to isolate all proteins that had reacted with inhibitor 31. These proteins were then eluted from the resin using a solution of 4 mM biotin, and the eluant was analyzed by SDS-PAGE. […] This validates not only the TG2-selectivity of probe 31, but also the efficiency of the click reaction of the GST-TG2-31 adduct, allowing for the isolation of TG2 from cell lysate in a very mild manner.
A total of 400 µL of the aforementioned E. coli cell lysate combined with 133 µL of a solution of 75 µM 31 was added to a 1.5 mL Eppendorf tube. The labelling was allowed to occur for 25 min. Totals of 25 µL of a solution of 500 µM azide-PEG3-desthiobiotin 32 and 500 µM cupric sulfate in 20 mM HEPES at pH 8.0 were added to the tube. To initiate the click reaction, 100 µL of 150 µM sodium ascorbate solution in mQ H2O was added and gently rocked for 2.5 h at room temperature. […]

Recombinant human TG2 [2] = molecular target: T1, Recombinant human TG2; assay: rhTG2 inhibition assay, continuous chromogenic substrate AL5, Kitz and Wilson conditions; type: biochemical; conditions: for kinact / Ki: * compounds fitted to double reciprocal model, 25 °C, pH 6.9, 100 µM AL5; for kinact/KI: * double reciprocal model, ** lowest concentrations of saturation plot fitted to a linear model; for Ki: irreversible inhibition
Excerpt: Relative to the original scaffold, we expected the potency of these novel chemical biology tools to decrease slightly, due to the additional bulk incorporated on the glutamate sidechain. Although we expected the sidechain moiety to be directed into bulk solvent, we were concerned that its mass and charge would disfavor the binding interaction. Therefore, we kinetically characterized these probes as rigorously as possible, in order to determine their relative affinity and reactivity. For most inhibitors we have made, including the parent inhibitor AA9 (Figure 1), we have been able to measure kinetic parameters under Kitz and Wilson conditions. This experimental approach is based on the use of a continuous activity assay and the measurement of first-order rate constants for the time-dependent inactivation of enzyme (see Figure 2A and Figures S1–S5 in Supplementary Materials). The dependence of these observed rate constants (kobs) on the inhibitor concentration divided by alpha ([I]/α) can then be fitted to a hyperbolic saturation model where the upper plateau represents the rate constant of inactivation (kinact), and the concentration providing half the rate constant of inactivation represents KI (Figure 2B). […] To compensate for this, the overall efficiency of the inhibitor (kinact/KI) can be derived from the slope of the linear region of the saturation plot (Figure 2C). To gauge the individual parameters, a double reciprocal fitting was also employed where KI can be calculated from the x-axis intercept and kinact can be calculated from the y-axis intercept (Figure 2D).
Recombinant human TG2 was expressed and purified using previously published protocols. The inhibition was monitored using a continuous chromogenic substrate AL5 [38] under Kitz and Wilson conditions. In brief, 125 µL of assay buffer composed of 111.11 mM MOPS, 15.56 CaCl2 pH 6.9 was added to a 1.5 mL Eppendorf tube to achieve final assay concentrations of 50 mM MOPS and […] CaCl2. To the tube was then added the respective concentration of inhibitor from an aqueous working stock (<5% DMSO final conditions). Various volumes of water were then added to ensure the final volumes were equal. The AL5 substrate was added to the Eppendorf tube as a 5 µL 5.56 mM solution in DMSO to obtain a final assay concentration of 100 µM. A 96-well polystyrene microplate then had 180 µL of the assay mixture added to it. The enzymatic reaction was finally initiated by addition of 20 µL 5 mU prediluted TG2 in assay buffer using a multichannel pipette. The reaction was monitored at 405 nm using a BioTek Synergy 4 plate reader for 20 min at 25 °C. A positive control with no inhibitor and a blank with no enzyme nor inhibitor were also included. The blank subtracted kinetic curves were then analyzed. The observed first-order rate constants of inactivation were gathered through a one-phase association model using the GraphPad software package. The rate constants were then fit to various models to elucidate the inhibition parameters. If saturation was achieved, they were fit to a saturation model versus the inhibitor concentration divided by alpha (where α=1+Substrate/Km ). A linear regression of the linear region of this saturation fitting was calculated to obtain a ratio of kinact/KI. A further double reciprocal model was used if saturation could not be observed due to the limitations in sensitivity of the assay or if solubility issues were present.

[3] = Solubility in aqueous solutions; type: physicochemical; conditions: read-out: concentration above which decreased solubility in aqueous solutions was displayed

T2 sequence (P21980 with tags, fused parts or gaps): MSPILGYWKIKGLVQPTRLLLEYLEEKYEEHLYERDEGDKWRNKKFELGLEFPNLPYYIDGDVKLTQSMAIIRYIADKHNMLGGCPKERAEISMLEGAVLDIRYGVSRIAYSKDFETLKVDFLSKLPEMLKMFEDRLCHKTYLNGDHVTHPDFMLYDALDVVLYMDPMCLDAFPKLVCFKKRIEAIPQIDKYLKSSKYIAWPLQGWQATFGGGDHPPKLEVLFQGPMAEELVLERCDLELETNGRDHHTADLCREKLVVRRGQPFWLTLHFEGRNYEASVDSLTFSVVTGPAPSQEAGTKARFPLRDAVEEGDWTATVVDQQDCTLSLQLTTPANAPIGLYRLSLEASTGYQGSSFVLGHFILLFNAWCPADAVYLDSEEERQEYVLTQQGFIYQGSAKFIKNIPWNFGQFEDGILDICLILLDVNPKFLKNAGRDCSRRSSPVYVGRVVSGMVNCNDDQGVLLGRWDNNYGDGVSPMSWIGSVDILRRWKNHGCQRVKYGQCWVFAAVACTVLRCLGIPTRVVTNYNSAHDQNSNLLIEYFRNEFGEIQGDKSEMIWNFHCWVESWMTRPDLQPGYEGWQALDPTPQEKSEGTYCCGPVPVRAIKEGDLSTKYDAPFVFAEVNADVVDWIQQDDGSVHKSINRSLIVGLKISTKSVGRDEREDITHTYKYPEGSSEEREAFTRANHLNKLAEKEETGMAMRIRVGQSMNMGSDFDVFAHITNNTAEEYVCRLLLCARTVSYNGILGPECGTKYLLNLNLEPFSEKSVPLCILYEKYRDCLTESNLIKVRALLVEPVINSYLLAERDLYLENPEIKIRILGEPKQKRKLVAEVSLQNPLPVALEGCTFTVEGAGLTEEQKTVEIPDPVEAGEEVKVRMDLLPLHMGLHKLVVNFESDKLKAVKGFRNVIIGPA

Compound	kinact/KI (Recombinant human TG2 [1]) [M⁻¹ s⁻¹]	proteins isolated by pull-down (TG2 selectivity) (GST-TG2 fusion protein)	kinact (Recombinant human TG2 [2]) [s⁻¹]	kinact/KI (Recombinant human TG2 [2]) [M⁻¹ s⁻¹]	Ki (Recombinant human TG2 [2]) [nM]	solubility [3] [µM]
C=CC(=O)NCCCC[C@H](NC(=O)OCc1ccccc1)C(=O)N1CCN(C(=O)c2cccc3ccccc23)CC1 [AA9]	1670					
C#CCNC(=O)CC[C@H](NC(=O)c1cccc2ccccc12)C(=O)N1CCN(C(=O)[C@H](CCCCNC(=O)C=C)NC(=O)OCc2ccccc2)CC1 [Compound 31]		the only protein efficiently isolated in this experiment corresponds to the GST-TG2 fusion protein	0.00767	8280	900 ± 500	
C=CC(=O)NCCCC[C@H](NC(=O)OCc1ccccc1)C(=O)N1CCN(C(=O)[C@H](CCC(=O)NCCCCCNC(=O)c2cc3ccc(N(CC)CC)cc3oc2=O)NC(=O)c2cccc3ccccc23)CC1 [Compound 22]			0.004	3130	1300 ± 1100	> 25
